Calls of active or inactive are those of the source. No cut-off for these calls is given here.

The first assay deals with HCT-116. The assay can be described thus: Inhibition of NF-kappaB activation expressed in HCT116 cells assessed as inhibition of TNF-alpha-induced transcriptional activation at 10 uM after 12 hrs by luciferase reporter gene assay relative to control. In kind it is cell-based. The conditions noted are these: values are per cent of control.
In the case of `COc1cc(-c2oc3cc(O)cc(O)c3c(=O)c2O[C@@H]2O[C@H](CO)[C@@H](O)[C@H](O)[C@H]2O)ccc1O`, the residual activity came out at 115%.
Same read-out and setting: to `O=c1cc(-c2ccccc2)oc2cccc(O)c12` belongs 116%.
Consider `O=c1cc(-c2ccccc2)oc2ccc3ccccc3c12`, for which the residual activity is 150%.
Still for that read-out and setting: to `O=c1cc(-c2ccccc2)oc2c1ccc1ccccc12` belongs 91.4%.
With `COc1cc(-c2cc(=O)c3ccccc3o2)ccc1O`, the residual activity came out at 105%.
On the same count and under the same terms, as for `COc1cccc2oc(-c3ccccc3)cc(=O)c12`, the figure is 63.9%; as for `O=c1cc(-c2cccc(O)c2)oc2cccc(O)c12`, 126%.
Still for that read-out and setting: to `COc1cccc(-c2cc(=O)c3ccccc3o2)c1OC` belongs 100%; to `COc1cc(OC)c2c(=O)cc(-c3ccc(OC)c(OC)c3)oc2c1`, 124%.
Take `Cc1c(-c2ccccc2)oc2c(C(=O)O)cccc2c1=O`: the residual activity was 143%.
For the molecule `O=c1cc(-c2cccc(O)c2O)oc2ccccc12`, the residual activity came to 109%.
As to `COc1cc(/C=C/C(=O)c2ccccc2OC)cc(OC)c1`, the residual activity was found to be 61.1%.
Same read-out and setting: as for `COc1cc(OC)c2c(c1)OC(c1ccccc1)CC2=O` (stereo not drawn), the figure is 126%.
For the molecule `COc1ccccc1-c1cc(=O)c2ccc3ccccc3c2o1`, the residual activity was determined as 65.1%.
On to `COc1cccc(/C=C/C(=O)c2cc(OC)cc(OC)c2)c1`, for which the residual activity was found to be 77.4%.
Consider `COc1cc(O)c2c(=O)c(-c3ccc(O)cc3)coc2c1`, for which the residual activity amounted to 105%.
Same read-out and setting: as for `COc1ccc(-c2coc3cc(OC)cc(OC)c3c2=O)cc1`, the figure is 123%; as for `COc1ccc(-c2cc(=O)c3c(OC)cc(OC)cc3o2)cc1`, 89.9%.
`COc1cccc2c1C(=O)CC(c1ccccc1)O2` (stereo not drawn): the residual activity stood at 108%.
For `O=c1c(O)c(-c2ccc(O)c(O)c2)oc2c(O[C@@H]3O[C@H](CO)[C@@H](O)[C@H](O)[C@H]3O)c(O)cc(O)c12`, the residual activity was 99.1%.
With `COc1ccc2c(=O)c(-c3ccccc3)coc2c1`, the residual activity came out at 132%.
With `COc1cccc2oc(-c3ccc(O)cc3)cc(=O)c12`, the residual activity was determined as 87.7%.
On to `COc1ccc(/C=C/C(=O)c2ccc(OC)cc2O)cc1`, for which the residual activity came to 83.1%.
For the molecule `COc1ccc2c(c1)OC(c1cc(OC)c(OC)c(OC)c1)CC2=O` (stereo not drawn), the residual activity is 99.8%.
Regarding `O=C1C[C@@H](c2ccc(O)cc2)Oc2cc(O)cc(O)c21`, the residual activity was 135%.
In the case of `O=c1cc(-c2ccccc2)oc2ccccc12`, the residual activity came to 113%.

The subject of the next assay is HCT-116. As to the kind of experiment: Inhibition of TNF-alpha-induced NF-kappaB activation expressed in HCT116 cells assessed as reduction of IkappaB phosphorylation at Ser32 at 20 uM treated 30 mins before TNFalpha challenge by Western blot analysis. In kind it is cell-based.
Details: not given
Regarding `COc1cc(/C=C/C(=O)c2cc(OC)cc(OC)c2)cc(OC)c1`, the inhibition entry was “Active”.

A further assay has as its system HCT-116. As to the kind of experiment: Inhibition of TNF-alpha-induced NF-kappaB activation expressed in HCT116 cells assessed as reduction of RelA phosphorylation at Ser536 at 20 uM treated 30 mins before TNFalpha challenge by immunofluorescence microscopic analysis. In kind it is cell-based.
Details: not given
With `COc1cc(/C=C/C(=O)c2cc(OC)cc(OC)c2)cc(OC)c1`, the inhibition result was “Active”.

The record behind these values is ChEMBL document CHEMBL1833933, “Relationship between the structures of flavonoids and their NF-κB-dependent transcriptional activities” (Bioorg Med Chem Lett, 2011).
